# Reference: BindingDB's records for doi:10.1021/bi7019707 (Emory University, 2008)
# What was measured:
# Assay in all cases: Inhibition Assay
# [1] = target: T1, Amine oxidase [flavin-containing] A (Rattus norvegicus, UniProt P21396)
# T1 sequence (P21396 whole entry): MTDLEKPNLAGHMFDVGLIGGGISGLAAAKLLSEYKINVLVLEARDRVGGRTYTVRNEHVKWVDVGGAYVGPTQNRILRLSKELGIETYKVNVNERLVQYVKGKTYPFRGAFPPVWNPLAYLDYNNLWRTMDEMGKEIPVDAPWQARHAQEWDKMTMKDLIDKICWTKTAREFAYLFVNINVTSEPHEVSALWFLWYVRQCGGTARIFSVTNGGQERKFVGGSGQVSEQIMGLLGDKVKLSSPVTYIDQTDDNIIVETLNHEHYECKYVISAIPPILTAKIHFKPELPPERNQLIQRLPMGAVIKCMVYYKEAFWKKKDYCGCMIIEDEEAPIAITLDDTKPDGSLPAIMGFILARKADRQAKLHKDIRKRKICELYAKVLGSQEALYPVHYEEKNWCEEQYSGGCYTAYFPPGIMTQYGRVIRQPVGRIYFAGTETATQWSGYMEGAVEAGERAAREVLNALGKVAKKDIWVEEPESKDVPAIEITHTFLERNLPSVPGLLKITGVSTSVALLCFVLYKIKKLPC
# Source text: (§1) Competitive inhibition assay using human and rat MAOs.
# [2] = target: T2, Amine oxidase [flavin-containing] A (Homo sapiens, UniProt P21397)
# T2 sequence (P21397 whole entry): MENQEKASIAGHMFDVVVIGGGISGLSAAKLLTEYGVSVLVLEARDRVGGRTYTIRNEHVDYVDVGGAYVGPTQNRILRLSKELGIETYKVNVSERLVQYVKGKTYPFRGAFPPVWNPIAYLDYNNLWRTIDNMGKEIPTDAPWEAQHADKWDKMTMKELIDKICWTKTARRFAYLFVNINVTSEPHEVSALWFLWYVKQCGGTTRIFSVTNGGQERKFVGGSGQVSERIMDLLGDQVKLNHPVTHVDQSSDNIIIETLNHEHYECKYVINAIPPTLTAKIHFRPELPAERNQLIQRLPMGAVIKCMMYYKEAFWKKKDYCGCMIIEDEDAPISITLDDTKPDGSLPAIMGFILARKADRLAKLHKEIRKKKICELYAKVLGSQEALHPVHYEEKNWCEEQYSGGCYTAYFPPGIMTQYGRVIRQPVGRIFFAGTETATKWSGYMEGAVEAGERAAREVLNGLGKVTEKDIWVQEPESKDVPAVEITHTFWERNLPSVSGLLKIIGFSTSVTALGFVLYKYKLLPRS
# Source text: as §1
# [3] = target: T3, Amine oxidase [flavin-containing] B (Homo sapiens, UniProt P27338)
# T3 sequence (P27338 whole entry): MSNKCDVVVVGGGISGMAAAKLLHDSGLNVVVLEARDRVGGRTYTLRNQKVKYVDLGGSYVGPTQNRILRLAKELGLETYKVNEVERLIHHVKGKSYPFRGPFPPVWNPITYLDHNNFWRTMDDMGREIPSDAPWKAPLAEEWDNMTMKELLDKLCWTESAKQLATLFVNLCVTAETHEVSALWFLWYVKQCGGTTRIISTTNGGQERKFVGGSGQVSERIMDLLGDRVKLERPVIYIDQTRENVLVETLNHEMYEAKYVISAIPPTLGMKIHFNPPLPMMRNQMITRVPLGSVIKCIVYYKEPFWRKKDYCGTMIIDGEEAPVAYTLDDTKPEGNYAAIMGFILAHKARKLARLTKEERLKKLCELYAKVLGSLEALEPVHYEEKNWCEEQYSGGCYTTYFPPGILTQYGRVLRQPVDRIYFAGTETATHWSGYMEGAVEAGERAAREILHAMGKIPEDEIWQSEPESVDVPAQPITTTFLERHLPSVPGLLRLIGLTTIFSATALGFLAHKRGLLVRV
# Source text: as §1
# [4] = target: T4, Amine oxidase [flavin-containing] B (Rattus norvegicus, UniProt P19643)
# T4 sequence (P19643 whole entry): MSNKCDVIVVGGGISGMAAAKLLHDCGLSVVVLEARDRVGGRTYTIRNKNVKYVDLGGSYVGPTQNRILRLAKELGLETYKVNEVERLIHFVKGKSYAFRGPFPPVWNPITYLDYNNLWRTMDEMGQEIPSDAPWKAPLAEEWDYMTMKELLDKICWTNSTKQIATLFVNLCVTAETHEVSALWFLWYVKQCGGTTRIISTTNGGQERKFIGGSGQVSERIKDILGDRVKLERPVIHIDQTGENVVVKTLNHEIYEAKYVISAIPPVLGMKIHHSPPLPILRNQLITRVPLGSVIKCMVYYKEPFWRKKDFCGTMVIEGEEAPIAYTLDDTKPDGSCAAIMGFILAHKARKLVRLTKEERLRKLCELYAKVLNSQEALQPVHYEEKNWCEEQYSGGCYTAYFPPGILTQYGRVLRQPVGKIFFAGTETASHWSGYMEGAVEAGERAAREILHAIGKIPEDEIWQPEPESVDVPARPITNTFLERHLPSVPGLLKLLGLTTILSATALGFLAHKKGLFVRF
# Source text: as §1
smiles,measurement,setting,value
C#CCN(C)Cc1ccc(CC(=O)NC2CC(C)(C)N(O)C(C)(C)C2)cc1 [ParSL],Ki,[1],151 µM
same,Ki,[2],212 µM
same,Ki,[3],22 µM
same,Ki,[4],107 µM
